Organism: Cavia porcellus
Assay: Relative contractile potency in guinea pig ileum assay compared to 14,15-dehydro-LTA 4 methyl ester
Format: functional

Structure (SMILES): CCCCCC#CC\C=C/C=C/C=C/[C@@H](SC[C@H](NC(=O)CC[C@H](N)C(=O)O)C(=O)NCC(=O)O)[C@@H](O)CCCC(=O)O
- Relative contractile potency: 0.9

Source: ChEMBL document CHEMBL1130552, “Synthesis and biological evaluation of 14,15-dehydro-LTA4 analog” (1997)
